Reference: ChEMBL document CHEMBL4477261, “Design, synthesis and evaluation of the multidrug resistance-reversing activity of pyridine acid esters of podophyllotoxin in human leukemia cells” (Bioorg Med Chem Lett, 2016)
Activity calls are given as the source filed them. The rule behind the calls is not given here.

Key:
[1] = system: K562/Adr; experiment: Antiproliferative activity against human K562/ADR cells after 72 hrs by CCK8 assay; assay type: functional, cell-based
[2] = system: K562; experiment: Antiproliferative activity against human K562 cells after 72 hrs by CCK8 assay; assay type: functional, cell-based; conditions: K562, 72 h
[3] = system: K562; experiment: Resistance factor, ratio of IC50 for human K562/ADR cells to IC50 for human K562 cells; assay type: functional
[4] = target: T1, Mitogen-activated protein kinase; ERK1/ERK2 (Homo sapiens) (UniProt P27361+P28482); experiment: Activation of ERK1/2 signalling in human K562/ADR cells assessed as increase in cleaved caspase-8 expression at 0.05 uM after 48 hrs by Western blot analysis relative to control; assay type: cell-based
T1 sequence (P27361 whole entry, looked up): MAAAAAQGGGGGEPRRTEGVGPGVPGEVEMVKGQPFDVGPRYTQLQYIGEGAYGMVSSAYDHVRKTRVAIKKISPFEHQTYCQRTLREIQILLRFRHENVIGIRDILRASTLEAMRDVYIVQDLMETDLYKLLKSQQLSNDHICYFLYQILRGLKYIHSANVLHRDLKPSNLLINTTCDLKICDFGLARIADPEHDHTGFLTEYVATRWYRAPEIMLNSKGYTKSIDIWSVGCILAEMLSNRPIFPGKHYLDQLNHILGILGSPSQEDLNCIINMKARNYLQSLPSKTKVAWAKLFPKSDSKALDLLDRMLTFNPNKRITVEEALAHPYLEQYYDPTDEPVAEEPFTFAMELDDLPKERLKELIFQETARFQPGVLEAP
T1 sequence (P28482 whole entry, looked up): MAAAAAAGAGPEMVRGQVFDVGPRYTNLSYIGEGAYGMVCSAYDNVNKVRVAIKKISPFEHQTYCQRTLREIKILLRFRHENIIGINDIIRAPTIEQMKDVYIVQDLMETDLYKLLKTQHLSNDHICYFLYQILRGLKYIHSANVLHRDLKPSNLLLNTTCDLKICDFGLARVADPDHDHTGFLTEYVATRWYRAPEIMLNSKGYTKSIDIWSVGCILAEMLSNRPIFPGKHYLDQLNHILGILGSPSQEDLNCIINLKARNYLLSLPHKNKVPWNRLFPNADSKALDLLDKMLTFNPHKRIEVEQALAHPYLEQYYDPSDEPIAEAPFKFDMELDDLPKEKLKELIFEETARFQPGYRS

[5] = target: T1, Mitogen-activated protein kinase; ERK1/ERK2 (Homo sapiens); experiment: Activation of ERK1/2 signalling in human K562/ADR cells assessed as increase in cleaved caspase-3 expression at 0.1 uM after 48 hrs by Western blot analysis relative to control; assay type: cell-based
[6] = system: K562/Adr; experiment: Induction of apoptosis in human K562/ADR cells assessed as necrotic cells at 0.05 uM after 48 hrs by Annexin V-APC/7-AAD staining based flow cytometry (reference value: 2.47%); assay type: functional
[7] = system: K562; experiment: Potency index, ratio of adriamycin IC50 to compound IC50 for human K562 cells; assay type: functional
[8] = system: K562/Adr; experiment: Induction of apoptosis in human K562/ADR cells assessed as live cells at 0.1 uM after 48 hrs by Annexin V-APC/7-AAD staining based flow cytometry (reference value: 91.65%); assay type: functional
[9] = system: K562/Adr; experiment: Potency index, ratio of podophyllotoxin IC50 to compound IC50 for human K562/ADR cells; assay type: functional
[10] = target: T1, Mitogen-activated protein kinase; ERK1/ERK2 (Homo sapiens); experiment: Activation of ERK1/2 signalling in human K562/ADR cells assessed as increase in cleaved caspase-8 expression at 0.1 uM after 48 hrs in presence of ERK1/2 inhibitor U0126 by Western blot analysis relative to control; assay type: cell-based
[11] = target: T1, Mitogen-activated protein kinase; ERK1/ERK2 (Homo sapiens); experiment: Activation of ERK1/2 signalling in human K562/ADR cells assessed as suppression of CyclinB1 protein expression at 0.05 uM after 48 hrs by Western blot analysis relative to control; assay type: cell-based
[12] = system: K562/Adr; experiment: Induction of apoptosis in human K562/ADR cells assessed as early apoptotic cells at 0.05 uM after 48 hrs by Annexin V-APC/7-AAD staining based flow cytometry (reference value: 1.99%); assay type: functional
[13] = target: T1, Mitogen-activated protein kinase; ERK1/ERK2 (Homo sapiens); experiment: Activation of ERK1/2 signalling in human K562/ADR cells assessed as suppression of P-gp expression at 0.1 uM after 48 hrs in presence of ERK1/2 inhibitor U0126 by Western blot analysis relative to control; assay type: cell-based
[14] = system: K562/Adr; experiment: Cell cycle arrest in human K562/ADR cells assessed as accumulation in S phase at 0.1 uM after 48 hrs by propidium iodide staining based flow cytometry (reference value: 43.39 +/- 0.69%); assay type: functional
[15] = target: T1, Mitogen-activated protein kinase; ERK1/ERK2 (Homo sapiens); experiment: Activation of ERK1/2 signalling in human K562/ADR cells assessed as increase in cleaved caspase-8 expression at 0.1 uM after 48 hrs by Western blot analysis relative to control; assay type: cell-based
[16] = target: T1, Mitogen-activated protein kinase; ERK1/ERK2 (Homo sapiens); experiment: Activation of ERK1/2 signalling in human K562/ADR cells assessed as suppression of CyclinB1 protein expression at 0.1 uM after 48 hrs in presence of ERK1/2 inhibitor U0126 by Western blot analysis relative to control; assay type: cell-based
[17] = target: T1, Mitogen-activated protein kinase; ERK1/ERK2 (Homo sapiens); experiment: Activation of ERK1/2 signalling in human K562/ADR cells assessed as suppression of CyclinB1 protein expression at 0.1 uM after 48 hrs by Western blot analysis relative to control; assay type: cell-based
[18] = system: K562/Adr; experiment: Induction of apoptosis in human K562/ADR cells assessed as early apoptotic cells at 0.1 uM after 48 hrs by Annexin V-APC/7-AAD staining based flow cytometry (reference value: 1.99%); assay type: functional
[19] = system: K562/Adr; experiment: Induction of apoptosis in human K562/ADR cells assessed as necrotic cells at 0.1 uM after 48 hrs by Annexin V-APC/7-AAD staining based flow cytometry (reference value: 2.47%); assay type: functional
[20] = system: K562/Adr; experiment: Effect on total ERK1/2 protein expression level in human K562/ADR cells at 0.1 uM after 48 hrs in presence of ERK1/2 inhibitor U0126 by Western blot analysis relative to control; assay type: ADME, cell-based
[21] = system: K562/Adr; experiment: Effect on total ERK1/2 protein expression level in human K562/ADR cells at 0.1 uM after 48 hrs by Western blot analysis relative to control; assay type: ADME, cell-based
[22] = target: T1, Mitogen-activated protein kinase; ERK1/ERK2 (Homo sapiens); experiment: Induction of ERK1/2 phosphorylation in human K562/ADR cells at 0.05 uM after 48 hrs by Western blot analysis relative to control; assay type: cell-based
[23] = target: T1, Mitogen-activated protein kinase; ERK1/ERK2 (Homo sapiens); experiment: Activation of ERK1/2 signalling in human K562/ADR cells assessed as increase in cleaved caspase-9 expression at 0.05 uM after 48 hrs by Western blot analysis relative to control; assay type: cell-based
[24] = system: K562/Adr; experiment: Effect on total ERK1/2 protein expression level in human K562/ADR cells at 0.05 uM after 48 hrs by Western blot analysis relative to control; assay type: ADME, cell-based
[25] = target: T1, Mitogen-activated protein kinase; ERK1/ERK2 (Homo sapiens); experiment: Activation of ERK1/2 signalling in human K562/ADR cells assessed as increase in cleaved caspase-3 expression at 0.1 uM after 48 hrs in presence of ERK1/2 inhibitor U0126 by Western blot analysis relative to control; assay type: cell-based
[26] = system: K562/Adr; experiment: Induction of apoptosis in human K562/ADR cells assessed as late apoptotic cells at 0.05 uM after 48 hrs by Annexin V-APC/7-AAD staining based flow cytometry (reference value: 3.89%); assay type: functional
[27] = target: T1, Mitogen-activated protein kinase; ERK1/ERK2 (Homo sapiens); experiment: Activation of ERK1/2 signalling in human K562/ADR cells assessed as suppression of CDK1 protein expression at 0.1 uM after 48 hrs in presence of ERK1/2 inhibitor U0126 by Western blot analysis relative to control; assay type: cell-based
[28] = target: T1, Mitogen-activated protein kinase; ERK1/ERK2 (Homo sapiens); experiment: Activation of ERK1/2 signalling in human K562/ADR cells assessed as suppression of P-gp expression at 0.1 uM after 48 hrs by Western blot analysis relative to control; assay type: cell-based
[29] = system: K562/Adr; experiment: Induction of apoptosis in human K562/ADR cells assessed as nuclear fragmentation at 0.05 to 0.1 uM after 48 hrs by Hoechst 33342 staining based fluorescent microscopic analysis; assay type: functional, cell-based
[30] = system: K562/Adr; experiment: Induction of apoptosis in human K562/ADR cells assessed as chromatin condensation at 0.05 to 0.1 uM after 48 hrs by Hoechst 33342 staining based fluorescent microscopic analysis; assay type: functional, cell-based
[31] = system: K562/Adr; experiment: Cell cycle arrest in human K562/ADR cells assessed as accumulation in S phase at 0.05 uM after 48 hrs by propidium iodide staining based flow cytometry (reference value: 43.39 +/- 0.69%); assay type: functional
[32] = system: K562/Adr; experiment: Potency index, ratio of etoposide IC50 to compound IC50 for human K562/ADR cells; assay type: functional
[33] = target: T1, Mitogen-activated protein kinase; ERK1/ERK2 (Homo sapiens); experiment: Activation of ERK1/2 signalling in human K562/ADR cells assessed as increase in cleaved caspase-9 expression at 0.1 uM after 48 hrs in presence of ERK1/2 inhibitor U0126 by Western blot analysis relative to control; assay type: cell-based
[34] = target: T1, Mitogen-activated protein kinase; ERK1/ERK2 (Homo sapiens); experiment: Induction of ERK1/2 phosphorylation in human K562/ADR cells at 0.1 uM after 48 hrs by Western blot analysis relative to control; assay type: cell-based
[35] = target: T1, Mitogen-activated protein kinase; ERK1/ERK2 (Homo sapiens); experiment: Activation of ERK1/2 signalling in human K562/ADR cells assessed as suppression of CDK1 protein expression at 0.05 uM after 48 hrs by Western blot analysis relative to control; assay type: cell-based
[36] = target: T1, Mitogen-activated protein kinase; ERK1/ERK2 (Homo sapiens); experiment: Induction of ERK1/2 phosphorylation in human K562/ADR cells at 0.1 uM after 48 hrs in presence of ERK1/2 inhibitor U0126 by Western blot analysis relative to control; assay type: cell-based
[37] = target: T1, Mitogen-activated protein kinase; ERK1/ERK2 (Homo sapiens); experiment: Activation of ERK1/2 signalling in human K562/ADR cells assessed as suppression of CDK1 protein expression at 0.1 uM after 48 hrs by Western blot analysis relative to control; assay type: cell-based
[38] = system: K562/Adr; experiment: Potency index, ratio of adriamycin IC50 to compound IC50 for human K562/ADR cells; assay type: functional
[39] = target: T1, Mitogen-activated protein kinase; ERK1/ERK2 (Homo sapiens); experiment: Activation of ERK1/2 signalling in human K562/ADR cells assessed as suppression of P-gp expression at 0.05 uM after 48 hrs by Western blot analysis relative to control; assay type: cell-based
[40] = system: K562/Adr; experiment: Induction of apoptosis in human K562/ADR cells assessed as live cells at 0.05 uM after 48 hrs by Annexin V-APC/7-AAD staining based flow cytometry (reference value: 91.65%); assay type: functional
[41] = system: K562/Adr; experiment: Induction of apoptosis in human K562/ADR cells assessed as late apoptotic cells at 0.1 uM after 48 hrs by Annexin V-APC/7-AAD staining based flow cytometry (reference value: 3.89%); assay type: functional
[42] = target: T1, Mitogen-activated protein kinase; ERK1/ERK2 (Homo sapiens); experiment: Activation of ERK1/2 signalling in human K562/ADR cells assessed as increase in cleaved caspase-9 expression at 0.1 uM after 48 hrs by Western blot analysis relative to control; assay type: cell-based
[43] = system: K562; experiment: Potency index, ratio of etoposide IC50 to compound IC50 for human K562 cells; assay type: functional
[44] = target: T1, Mitogen-activated protein kinase; ERK1/ERK2 (Homo sapiens); experiment: Activation of ERK1/2 signalling in human K562/ADR cells assessed as increase in cleaved caspase-3 expression at 0.05 uM after 48 hrs by Western blot analysis relative to control; assay type: cell-based

COc1ccc(C(=O)O[C@H]2c3cc4c(cc3[C@@H](c3cc(OC)c(OC)c(OC)c3)[C@H]3C(=O)OC[C@@H]32)OCO4)cn1
IC50 [1]: 123 nM
IC50 [2]: 58 nM
Ratio IC50 [3]: 2.12

COc1cc([C@@H]2c3cc4c(cc3[C@H](OC(=O)c3cccc(Br)n3)[C@H]3COC(=O)[C@H]23)OCO4)cc(OC)c1OC
fold change (FC) [4]: 0.38
fold change (FC) [5]: 0.64
Activity [6]: 6.37%
Ratio IC50 [7]: 8.8
Activity [8]: 41.01%
Ratio IC50 [9]: 0.54
IC50 [1]: 46 nM
fold change (FC) [10]: 0.4
fold change (FC) [11]: 0.25
Activity [12]: 7.42%
fold change (FC) [13]: 0.31
Activity [14]: 64.17%
fold change (FC) [15]: 0.57
fold change (FC) [16]: 0.2
fold change (FC) [17]: 0.15
Activity [18]: 9.15%
Activity [19]: 5.82%
fold change (FC) [20]: 0.65
fold change (FC) [21]: 0.89
fold change (FC) [22]: 0.32
fold change (FC) [23]: 0.49
IC50 [2]: 25 nM
fold change (FC) [24]: 0.94
fold change (FC) [25]: 0.52
Ratio IC50 [3]: 1.84
Activity [26]: 18.84%
fold change (FC) [27]: 0.71
fold change (FC) [28]: 0.1
Activity [29]: Active
Activity [30]: Active
Activity [31]: 53.74%
Ratio IC50 [32]: 44.02
fold change (FC) [33]: 0.59
fold change (FC) [34]: 0.71
fold change (FC) [35]: 0.81
fold change (FC) [36]: 0.07
fold change (FC) [37]: 0.46
Ratio IC50 [38]: 408.23
fold change (FC) [39]: 0.26
Activity [40]: 67.37%
Activity [41]: 44.02%
fold change (FC) [42]: 0.75
Ratio IC50 [43]: 16.52
fold change (FC) [44]: 0.47
